pIC50: −log10 of the molar value.
What was measured:
[1] = Plasma protein binding in mouse; format: ADME, cell-free; settings: read-out: PPB (converted)
[2] = molecular target: T1, Angiotensin-converting enzyme (Mus musculus, UniProt P09470); test: Inhibition of ob/ob mouse plasma ACE
T1 sequence (P09470 whole entry): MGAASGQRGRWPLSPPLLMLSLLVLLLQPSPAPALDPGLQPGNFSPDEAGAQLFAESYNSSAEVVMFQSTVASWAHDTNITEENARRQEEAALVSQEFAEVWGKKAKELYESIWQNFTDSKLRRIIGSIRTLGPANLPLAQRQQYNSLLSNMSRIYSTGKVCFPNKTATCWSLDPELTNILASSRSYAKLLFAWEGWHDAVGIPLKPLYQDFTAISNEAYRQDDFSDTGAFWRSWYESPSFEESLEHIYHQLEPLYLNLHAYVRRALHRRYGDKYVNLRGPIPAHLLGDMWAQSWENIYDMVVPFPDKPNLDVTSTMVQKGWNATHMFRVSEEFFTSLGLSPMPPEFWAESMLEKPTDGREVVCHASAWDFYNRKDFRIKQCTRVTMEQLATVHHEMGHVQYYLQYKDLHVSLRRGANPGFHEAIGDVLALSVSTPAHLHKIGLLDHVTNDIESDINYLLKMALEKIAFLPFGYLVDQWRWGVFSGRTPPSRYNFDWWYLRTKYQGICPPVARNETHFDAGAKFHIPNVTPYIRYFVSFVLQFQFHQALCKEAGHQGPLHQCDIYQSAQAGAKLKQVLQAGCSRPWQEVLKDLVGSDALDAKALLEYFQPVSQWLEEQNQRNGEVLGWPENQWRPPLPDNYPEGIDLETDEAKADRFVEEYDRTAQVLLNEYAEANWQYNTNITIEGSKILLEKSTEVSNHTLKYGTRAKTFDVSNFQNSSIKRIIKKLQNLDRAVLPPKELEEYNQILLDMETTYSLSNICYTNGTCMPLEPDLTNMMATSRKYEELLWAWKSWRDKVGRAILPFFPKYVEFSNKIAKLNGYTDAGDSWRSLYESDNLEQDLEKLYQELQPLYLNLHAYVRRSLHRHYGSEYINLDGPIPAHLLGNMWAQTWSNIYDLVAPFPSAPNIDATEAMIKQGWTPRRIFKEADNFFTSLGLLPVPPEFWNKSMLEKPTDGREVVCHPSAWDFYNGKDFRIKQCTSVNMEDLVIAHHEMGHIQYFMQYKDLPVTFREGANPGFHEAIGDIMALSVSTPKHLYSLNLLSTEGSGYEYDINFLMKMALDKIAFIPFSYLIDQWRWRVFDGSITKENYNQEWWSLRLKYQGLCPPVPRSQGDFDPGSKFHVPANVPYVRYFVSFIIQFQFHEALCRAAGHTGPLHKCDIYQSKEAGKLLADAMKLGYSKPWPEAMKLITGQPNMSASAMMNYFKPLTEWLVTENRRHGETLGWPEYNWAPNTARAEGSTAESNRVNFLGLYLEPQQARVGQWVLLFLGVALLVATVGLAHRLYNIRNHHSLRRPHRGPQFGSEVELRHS

[3] = molecular target: Dipeptidyl peptidase 8 (Homo sapiens, UniProt Q6V1X1); test: Inhibition of DPP8 (unknown origin)
Sequence of Dipeptidyl peptidase 8 (Q6V1X1 whole entry): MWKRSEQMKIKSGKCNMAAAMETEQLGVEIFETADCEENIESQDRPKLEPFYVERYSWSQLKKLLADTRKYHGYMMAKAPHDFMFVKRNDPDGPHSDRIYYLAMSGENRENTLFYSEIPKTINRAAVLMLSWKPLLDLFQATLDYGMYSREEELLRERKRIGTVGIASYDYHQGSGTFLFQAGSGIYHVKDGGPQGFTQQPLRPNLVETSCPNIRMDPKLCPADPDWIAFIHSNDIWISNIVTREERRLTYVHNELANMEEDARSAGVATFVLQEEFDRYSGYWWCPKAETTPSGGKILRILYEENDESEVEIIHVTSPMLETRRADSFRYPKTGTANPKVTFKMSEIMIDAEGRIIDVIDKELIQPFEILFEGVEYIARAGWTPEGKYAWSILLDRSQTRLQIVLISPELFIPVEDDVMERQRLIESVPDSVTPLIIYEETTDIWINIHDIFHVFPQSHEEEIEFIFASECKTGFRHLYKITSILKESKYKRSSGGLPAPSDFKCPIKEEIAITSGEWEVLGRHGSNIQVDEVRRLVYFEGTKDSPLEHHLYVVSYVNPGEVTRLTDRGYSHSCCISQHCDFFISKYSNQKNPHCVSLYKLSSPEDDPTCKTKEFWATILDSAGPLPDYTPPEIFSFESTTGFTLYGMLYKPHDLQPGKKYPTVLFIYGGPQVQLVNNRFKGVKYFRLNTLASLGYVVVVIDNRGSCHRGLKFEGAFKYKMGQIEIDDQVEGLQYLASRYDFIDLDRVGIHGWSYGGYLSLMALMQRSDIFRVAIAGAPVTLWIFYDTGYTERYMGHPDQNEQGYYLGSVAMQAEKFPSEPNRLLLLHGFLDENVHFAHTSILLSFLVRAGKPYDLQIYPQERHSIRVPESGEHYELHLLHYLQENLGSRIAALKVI

[4] = molecular target: T2, Angiotensin-converting enzyme (Rattus norvegicus, UniProt P47820); test: Inhibition of Wistar rat plasma ACE
T2 sequence (P47820 whole entry): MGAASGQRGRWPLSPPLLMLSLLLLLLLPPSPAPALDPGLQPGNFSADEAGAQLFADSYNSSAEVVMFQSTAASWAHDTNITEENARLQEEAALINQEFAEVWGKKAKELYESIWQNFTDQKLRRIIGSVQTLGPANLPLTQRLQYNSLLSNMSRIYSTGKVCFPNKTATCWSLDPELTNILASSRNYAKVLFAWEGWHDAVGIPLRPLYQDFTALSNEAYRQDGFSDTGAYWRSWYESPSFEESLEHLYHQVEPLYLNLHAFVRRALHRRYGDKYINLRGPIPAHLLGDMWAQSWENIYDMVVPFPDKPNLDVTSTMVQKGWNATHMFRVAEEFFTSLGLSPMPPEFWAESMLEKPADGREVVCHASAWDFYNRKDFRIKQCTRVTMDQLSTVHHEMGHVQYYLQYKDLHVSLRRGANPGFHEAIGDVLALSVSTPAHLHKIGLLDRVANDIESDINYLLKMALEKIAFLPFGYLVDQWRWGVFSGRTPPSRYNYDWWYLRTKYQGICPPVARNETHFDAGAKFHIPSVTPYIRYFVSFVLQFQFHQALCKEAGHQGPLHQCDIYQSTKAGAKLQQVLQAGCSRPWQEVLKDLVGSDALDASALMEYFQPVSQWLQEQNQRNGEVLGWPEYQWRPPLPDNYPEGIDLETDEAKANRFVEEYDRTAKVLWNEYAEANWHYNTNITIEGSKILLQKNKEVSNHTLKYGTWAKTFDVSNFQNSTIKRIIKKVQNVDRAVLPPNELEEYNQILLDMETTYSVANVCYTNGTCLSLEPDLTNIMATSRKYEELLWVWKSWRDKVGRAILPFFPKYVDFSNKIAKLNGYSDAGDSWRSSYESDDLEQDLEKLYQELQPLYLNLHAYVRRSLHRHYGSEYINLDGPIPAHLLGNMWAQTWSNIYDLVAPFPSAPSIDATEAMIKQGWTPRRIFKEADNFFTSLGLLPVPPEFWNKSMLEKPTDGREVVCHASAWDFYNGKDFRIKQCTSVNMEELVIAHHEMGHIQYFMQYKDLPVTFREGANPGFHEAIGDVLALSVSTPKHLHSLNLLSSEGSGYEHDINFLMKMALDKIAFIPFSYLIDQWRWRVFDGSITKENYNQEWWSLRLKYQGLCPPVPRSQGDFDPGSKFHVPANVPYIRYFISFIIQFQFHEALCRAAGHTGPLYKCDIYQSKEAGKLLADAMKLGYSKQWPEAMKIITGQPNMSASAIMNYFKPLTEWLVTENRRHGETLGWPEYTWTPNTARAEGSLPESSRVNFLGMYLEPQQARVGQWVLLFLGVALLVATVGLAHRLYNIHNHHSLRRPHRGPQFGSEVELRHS

[5] = molecular target: Cytochrome P450 3A4 (Homo sapiens, UniProt P08684); test: Inhibition of CYP3A4 (unknown origin) up to 10 uM; format: ADME
Sequence of Cytochrome P450 3A4 (P08684 whole entry): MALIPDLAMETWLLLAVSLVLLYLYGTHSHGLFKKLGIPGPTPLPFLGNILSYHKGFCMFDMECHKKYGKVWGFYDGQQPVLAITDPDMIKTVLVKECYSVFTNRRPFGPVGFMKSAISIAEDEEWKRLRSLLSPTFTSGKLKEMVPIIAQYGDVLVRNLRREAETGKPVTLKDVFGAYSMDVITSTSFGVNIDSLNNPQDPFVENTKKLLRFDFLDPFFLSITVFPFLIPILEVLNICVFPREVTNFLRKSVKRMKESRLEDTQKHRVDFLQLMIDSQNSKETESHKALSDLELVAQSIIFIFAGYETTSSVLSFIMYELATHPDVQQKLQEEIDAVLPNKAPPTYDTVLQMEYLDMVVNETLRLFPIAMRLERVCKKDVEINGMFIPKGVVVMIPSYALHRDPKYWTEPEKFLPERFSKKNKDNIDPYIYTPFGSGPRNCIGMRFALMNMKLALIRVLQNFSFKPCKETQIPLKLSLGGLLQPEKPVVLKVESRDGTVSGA

[6] = test system: Liver; test: Stability in mouse liver microsomes; format: ADME, microsome
[7] = Tmax in Wistar rat plasma at 30 mg/kg, po; format: ADME, organism-based
[8] = molecular target: Dipeptidyl peptidase 4 (Rattus norvegicus, UniProt P14740); test: Inhibition of Wistar rat plasma DPP4
Sequence of Dipeptidyl peptidase 4 (Rattus norvegicus, UniProt P14740) (P14740 whole entry): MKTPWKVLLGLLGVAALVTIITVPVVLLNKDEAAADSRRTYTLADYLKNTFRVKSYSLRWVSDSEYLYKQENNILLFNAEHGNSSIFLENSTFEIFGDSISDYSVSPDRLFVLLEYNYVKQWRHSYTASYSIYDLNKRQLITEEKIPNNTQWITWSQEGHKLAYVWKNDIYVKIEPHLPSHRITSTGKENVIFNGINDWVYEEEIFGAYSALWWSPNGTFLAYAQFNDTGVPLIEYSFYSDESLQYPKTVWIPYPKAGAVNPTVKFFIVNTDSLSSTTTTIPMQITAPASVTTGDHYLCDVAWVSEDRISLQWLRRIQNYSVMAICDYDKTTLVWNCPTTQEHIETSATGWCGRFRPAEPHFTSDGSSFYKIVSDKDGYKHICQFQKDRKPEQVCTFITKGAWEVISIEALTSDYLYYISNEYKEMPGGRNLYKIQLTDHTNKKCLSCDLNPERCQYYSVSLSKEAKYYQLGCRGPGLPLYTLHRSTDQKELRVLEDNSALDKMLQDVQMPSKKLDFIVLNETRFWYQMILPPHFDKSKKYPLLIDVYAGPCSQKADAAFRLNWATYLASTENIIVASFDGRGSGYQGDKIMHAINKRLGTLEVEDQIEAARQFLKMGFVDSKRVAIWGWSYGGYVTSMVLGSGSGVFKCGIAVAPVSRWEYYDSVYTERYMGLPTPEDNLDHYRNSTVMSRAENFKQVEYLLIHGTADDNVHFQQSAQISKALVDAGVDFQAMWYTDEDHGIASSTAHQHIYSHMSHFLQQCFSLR

[9] = molecular target: Cytochrome P450 2D6 (Homo sapiens, UniProt P10635); test: Inhibition of CYP2D6 (unknown origin) up to 10 uM; format: ADME
Sequence of Cytochrome P450 2D6 (P10635 whole entry): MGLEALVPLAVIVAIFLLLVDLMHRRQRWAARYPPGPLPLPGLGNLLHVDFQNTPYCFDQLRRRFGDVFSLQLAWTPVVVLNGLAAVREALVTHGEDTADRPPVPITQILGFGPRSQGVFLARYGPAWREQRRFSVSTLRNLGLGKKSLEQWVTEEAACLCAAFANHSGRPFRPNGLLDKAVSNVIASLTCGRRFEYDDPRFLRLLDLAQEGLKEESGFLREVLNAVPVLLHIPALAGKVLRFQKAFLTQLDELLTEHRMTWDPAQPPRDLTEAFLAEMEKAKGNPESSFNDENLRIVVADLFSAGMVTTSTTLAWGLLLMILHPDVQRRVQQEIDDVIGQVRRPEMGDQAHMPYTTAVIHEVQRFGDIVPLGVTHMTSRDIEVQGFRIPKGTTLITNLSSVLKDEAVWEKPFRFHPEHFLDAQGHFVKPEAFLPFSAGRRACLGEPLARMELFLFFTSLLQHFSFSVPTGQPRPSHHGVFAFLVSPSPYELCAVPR

[10] = Inhibition of APP (unknown origin); parameters: species or system Homo sapiens
[11] = molecular target: Dipeptidyl peptidase 4 (Homo sapiens, UniProt P27487); test: Inhibition of human plasma DPP4
Sequence of Dipeptidyl peptidase 4 (Homo sapiens, UniProt P27487) (P27487 whole entry): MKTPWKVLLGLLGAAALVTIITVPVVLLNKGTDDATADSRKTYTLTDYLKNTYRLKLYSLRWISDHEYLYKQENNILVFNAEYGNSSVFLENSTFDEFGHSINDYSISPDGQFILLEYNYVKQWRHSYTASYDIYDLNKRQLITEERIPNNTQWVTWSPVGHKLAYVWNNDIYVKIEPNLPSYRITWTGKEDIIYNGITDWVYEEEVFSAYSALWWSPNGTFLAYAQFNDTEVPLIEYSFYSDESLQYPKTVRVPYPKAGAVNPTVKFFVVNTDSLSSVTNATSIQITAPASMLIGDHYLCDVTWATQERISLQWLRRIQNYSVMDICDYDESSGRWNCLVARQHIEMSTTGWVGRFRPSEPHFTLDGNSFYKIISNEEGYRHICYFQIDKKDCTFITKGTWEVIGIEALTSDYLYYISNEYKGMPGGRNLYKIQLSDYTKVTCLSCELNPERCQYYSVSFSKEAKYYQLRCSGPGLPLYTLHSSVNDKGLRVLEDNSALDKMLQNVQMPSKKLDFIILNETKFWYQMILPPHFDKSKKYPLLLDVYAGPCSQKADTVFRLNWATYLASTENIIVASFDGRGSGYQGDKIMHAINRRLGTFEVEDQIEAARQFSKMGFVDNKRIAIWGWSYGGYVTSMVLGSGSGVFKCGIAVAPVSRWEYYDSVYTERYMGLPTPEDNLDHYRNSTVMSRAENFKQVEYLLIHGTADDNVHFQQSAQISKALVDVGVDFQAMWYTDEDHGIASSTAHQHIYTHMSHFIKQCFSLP

[12] = molecular target: Neprilysin (Homo sapiens, UniProt P08473); test: Inhibition of NEP (unknown origin)
Sequence of Neprilysin (P08473 whole entry): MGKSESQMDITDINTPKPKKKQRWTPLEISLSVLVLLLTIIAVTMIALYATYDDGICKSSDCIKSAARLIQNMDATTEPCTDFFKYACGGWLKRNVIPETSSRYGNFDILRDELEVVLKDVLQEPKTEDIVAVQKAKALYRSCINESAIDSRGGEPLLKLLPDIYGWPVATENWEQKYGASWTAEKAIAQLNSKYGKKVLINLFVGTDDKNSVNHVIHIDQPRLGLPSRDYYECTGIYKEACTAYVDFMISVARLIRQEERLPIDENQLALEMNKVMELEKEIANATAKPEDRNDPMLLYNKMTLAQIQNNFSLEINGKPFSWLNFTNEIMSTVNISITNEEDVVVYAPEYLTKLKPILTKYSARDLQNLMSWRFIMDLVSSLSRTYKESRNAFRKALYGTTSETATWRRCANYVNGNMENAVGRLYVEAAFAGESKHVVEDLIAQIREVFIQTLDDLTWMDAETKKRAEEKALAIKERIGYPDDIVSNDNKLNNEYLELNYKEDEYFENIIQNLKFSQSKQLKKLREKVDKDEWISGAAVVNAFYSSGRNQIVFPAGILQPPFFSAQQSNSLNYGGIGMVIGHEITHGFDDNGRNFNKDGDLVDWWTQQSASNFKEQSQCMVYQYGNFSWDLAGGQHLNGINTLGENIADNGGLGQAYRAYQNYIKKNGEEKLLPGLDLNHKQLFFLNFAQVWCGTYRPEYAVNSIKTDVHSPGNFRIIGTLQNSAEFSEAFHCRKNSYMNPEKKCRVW

[13] = Plasma protein binding in rat; format: ADME, cell-free; settings: read-out: PPB (converted)

fraction unbound [1] | pIC50 [2] | pIC50 [3] | pIC50 [4] | inhibition (INH) [5] | Stability [6] | Tmax [7] [h] | pIC50 [8] | inhibition (INH) [9] | pIC50 [10] | pIC50 [11] | pIC50 [12] | fraction unbound [13] | SMILES
0.129 | 7.00 | 4.16 | 7.62 | Not Active | Stable | 1.67 | 6.50 | Not Active | < 4.00 | 7.24 | < 4.00 | 0.403 | CC[C@H](N[C@@H](CCc1ccccc1)C(=O)O)C(=O)N1C[C@@H](NC(=O)C[C@H](N)Cc2cc(F)c(F)cc2F)C[C@H]1C(=O)O
0.015 | 5.69 | 4.24 | 6.05 | Not Active | Stable | 3.3 | 5.91 | Not Active | < 4.00 | 7.17 | < 4.00 | 0.564 | CCC[C@H](N[C@@H](CCc1ccccc1)C(=O)O)C(=O)N1C[C@@H](NC(=O)C[C@H](N)Cc2cc(F)c(F)cc2F)C[C@H]1C(=O)O
0.51 | 7.24 | 4.57 | 6.48 | Not Active | Stable | 1.5 | 6.81 | Not Active | < 4.00 | 6.59 | < 4.00 | 0.58 | C[C@H](N[C@@H](CCc1ccccc1)C(=O)O)C(=O)N1C[C@@H](NC(=O)C[C@H](N)Cc2cc(F)c(F)cc2F)C[C@H]1C(=O)O
0.014 | 5.66 | < 4.00 | 5.55 | Not Active | Stable | 2 | 5.38 | Not Active | < 4.00 | 6.99 | < 4.00 | 0.583 | CCCC[C@H](N[C@@H](CCc1ccccc1)C(=O)O)C(=O)N1C[C@@H](NC(=O)C[C@H](N)Cc2cc(F)c(F)cc2F)C[C@H]1C(=O)O
